Test results reported in patent US20150045425A1, “PELTATIN AND METABOLIC DISORDERS” (NESTEC S.A., priority 2012, published 2015).

System: HeLa cells
Assay: Cellular toxicity, standard method, compared to untreated cells
Format: cell-based, human
Settings: up to highest dose used
Procedure: The AC50 (upper part of the insert) and the maximum % activation (lower part of the insert) are given. Cellular toxicity was also assessed with standard method compared to untreated cells and shown in % of toxicity.
An edible plant fraction library was tested for PPARs agonist activity and toxicity. Then relevant plant fractions were further analyzed and bioactive(s) characterized and validated with the same hPPARa, hPPARg or hPPARd reporter bioassays. The reporter bioassay we used in order to identify anti-inflammatory plant properties targeted activation of human PPARs in human HeLa cells (as described in the FIG. 1). All isolated bioactives were tested in a dose response manner in duplicate. Assays were repeated 3-4 times. Shown are mean values obtained. Therefore specificity (for all the three known human PPAR receptors namely PPARa, PPARd and PPARg) and efficacy (full agonist i.e. % maximal activity >100% or partial agonist i.e. % maximal activity <100%) were tested (FIG. 2-4).

Measured: Cellular toxicity (% of toxicity)

COc1cc([C@@H]2c3cc4c(c(O)c3C[C@H]3COC(=O)[C@@H]32)OCO4)cc(OC)c1OC [beta-Peltatin]
no toxicity was observed: FIG. 2, PPARa activation dose-response | FIG. 3, PPARg activation dose-response | FIG. 4, PPARd activation dose-response
